System: RAW 264.7 cells
Experiment: Nitric oxide suppression assay (IFNγ-induced NO production, Griess detection)
Format: cell-based
Conditions: RAW264.7, RAW 264.7 mouse macrophages, 2 h compound pre-treatment, 20 ng/mL interferon gamma, ~18 h
Procedure: RAW 264.7, a mouse macrophage cell line, was obtained from American Type Culture Collection (Manassas Va.) and maintained in the log phase of growth in Dulbecco's Modified Eagle's Medium (DMEM), 10% heat inactivated fetal calf serum and 100 units/mL antibiotic-antimycotic (AA). Cells were cultured and maintained in a humidified incubator at 37° C. under 5% CO2 and 95% air. Cells were sub-cultured every 3 days by scraping and were not used beyond passage 20. All cell culture supplies were obtained from Life Technologies (Grand Island, N.Y.).
RAW 264.7 cells were plated 1 day in advance of experiment at a concentration of 80,000 cells/well onto CellBIND® 96 well plates (Corning, N.Y.) in a total volume of 100 μL. The next day, pre-treat cells with compounds (from 3 μM to 0.3 nM serially diluted in a 10 point curve) from a 10× stock by adding 10 μL per well in complete DMEM media containing 10% fetal calf serum. The plates were centrifuged for 3 minutes at 400×g at room temperature followed by 2 hour incubation at 37° C. The cells were then incubated overnight at 37° C. with 10 μL of the insult, interferon gamma (R&D Systems, Minneapolis, Minn.), from a 10× stock for a final concentration of 20 ng/mL. The plates were centrifuged for 3 minutes at 400×g at room temperature followed by ˜18 hour incubation at 37° C. The following day, transfer 50 μL cell culture supernatant from each well into a clear bottom 96 well plate and follow the instructions from Promega's Griess Detection Kit #G2930 (Madison, Wis.) which involves the addition of 50 μL of the provided sulfanilamide solution for a 5-10 minute incubation at room temperature. Next add 50 μL of the provided N-1-napthylethylenediamine dihydrochloride (NED) solution for a 5-10 minute incubation at room temperature and protected from light. If any air bubbles were introduced into the well, the plates need to be centrifuged for 5 minutes at 400×g at room temperature to avoid interference with absorbance readings. The plates were read for absorbance within 30 minutes with a filter between 520 nm and 550 nm.
For the ability of compounds to suppress the increase in nitric oxide release, the percent maximal intensity of nitric oxide detected in each well was normalized to that induced by the peak value for 20 ng/mL of interferon gamma alone and plotted against the compound concentration to calculate IC50 values and to control for plate-to-plate variability. Concentration-response data were analyzed using GraphPad Prism (San Diego, Calif.); the IC50 values were derived from a single curve fit to the mean data of n=2-3, in duplicates.
All compounds were dissolved in dimethyl sulfoxide at 10 mM stock solutions and tested at a concentration that the dimethyl sulfoxide levels never exceeded 1%.

Row | Compound | IC50 [nM]
1 | Cc1nc2c(n1-c1cnn(C)c1)CC[C@H]1[C@H](C)C(=O)C(C#N)=C[C@]21C [Compound T13] | 233
2 | Cc1nc2c(n1-c1ccccc1)CC[C@H]1[C@H](C)C(=O)C(C#N)=C[C@]21C [Compound T3] | 40.8
3 | C[C@@H]1C(=O)C(C#N)=C[C@]2(C)c3nc(-c4cnn(C)c4)n(-c4nnn(C)n4)c3CC[C@@H]12 [Compound T16] | 132
4 | C[C@@H]1C(=O)C(C#N)=C[C@]2(C)c3nc(-c4cnn(C)c4)n(-c4ccccc4)c3CC[C@@H]12 [Compound T9] | 22.7
5 | Cc1nc2c(n1-c1cccc(-c3ccccc3)c1)CC[C@H]1[C@H](C)C(=O)C(C#N)=C[C@]21C [Compound T7] | 91.8
6 | Cc1ccccc1-n1c(C)nc2c1CC[C@H]1[C@H](C)C(=O)C(C#N)=C[C@]21C [Compound T10] | 62.8
7 | C[C@@H]1C(=O)C(C#N)=C[C@]2(C)c3nc(-c4ccccc4)n(-c4nnn(C)n4)c3CC[C@@H]12 [Compound T8] | 28.8
8 | C[C@@H]1C(=O)C(C#N)=C[C@]2(C)c3nc(-c4ccccc4)[nH]c3CC[C@@H]12 [Compound T1] | 151
9 | Cc1nc2c(n1-c1cccc(CCCO)c1)CC[C@H]1[C@H](C)C(=O)C(C#N)=C[C@]21C [Compound T6] | 19.4
10 | Cc1nc2c(n1-c1ccccc1)CC[C@H]1[C@H](C)C(=O)C(C(N)=O)=C[C@]21C [Compound T28] | 138
11 | C[C@@H]1C(=O)C(C#N)=C[C@]2(C)c3nc(-c4ccccc4)n(-c4ccccc4)c3CC[C@@H]12 [Compound T2] | 471
12 | Cc1nc2c(n1-c1cccc(CCC(=O)N(C)C)c1)CC[C@H]1[C@H](C)C(=O)C(C#N)=C[C@]21C [Compound T19] | 82.7
13 | C[C@@H]1C(=O)C(C#N)=C[C@]2(C)c3nc(-c4ccccc4)n(-c4cnn(C)c4)c3CC[C@@H]12 [Compound T17] | 120
14 | Cc1nc2c(n1-c1cccc(CCC(=O)O)c1)CC[C@H]1[C@H](C)C(=O)C(C#N)=C[C@]21C [Compound T15] | > 3000
15 | Cc1nc2c(n1-c1cccc(CCC(N)=O)c1)CC[C@H]1[C@H](C)C(=O)C(C#N)=C[C@]21C [Compound T20] | 1000

Further compounds by falling IC50, results first:

Row | IC50 [nM] | Compound
16 | 693 | CNC(=O)CCc1cccc(-n2c(C)nc3c2CC[C@H]2[C@H](C)C(=O)C(C#N)=C[C@]32C)c1 [Compound T18]
17 | 662 | CC(=O)OCCCc1cccc(-n2c(-c3ccccc3)nc3c2CC[C@H]2[C@H](C)C(=O)C(C#N)=C[C@]32C)c1 [Compound T4]
18 | 407 | COCCCn1c(C)nc2c1CC[C@H]1[C@H](C)C(=O)C(C#N)=C[C@]21C [Compound T21]
19 | 222 | COC(=O)CCc1cccc(-n2c(C)nc3c2CC[C@H]2[C@H](C)C(=O)C(C#N)=C[C@]32C)c1 [Compound T14]
20 | 136 | Cc1nc2c(n1-c1ccc(-c3ccccc3)cc1)CC[C@H]1[C@H](C)C(=O)C(C#N)=C[C@]21C [TS]
21 | 93.2 | C[C@@H]1C(=O)C(C#N)=C[C@]2(C)c3nc(CCOCc4ccccc4)n(-c4ccccc4)c3CC[C@@H]12 [Compound T11]
22 | 53.1 | C[C@@H]1C(=O)C(C#N)=C[C@]2(C)c3nc(C(N)=O)n(-c4ccccc4)c3CC[C@@H]12 [Compound T27]
23 | 48.8 | C[C@@H]1C(=O)C(C#N)=C[C@]2(C)c3nc(-c4ccncc4)n(-c4ccccc4)c3CC[C@@H]12 [Compound T24]
24 | 47.8 | Cc1nc2c(n1-c1cccc(-c3cncnc3)c1)CC[C@H]1[C@H](C)C(=O)C(C#N)=C[C@]21C [Compound T22]
25 | 31.1 | C[C@@H]1C(=O)C(C#N)=C[C@]2(C)c3nc(Br)n(-c4ccccc4)c3CC[C@@H]12 [Compound T23]
26 | 27.7 | C[C@@H]1C(=O)C(C#N)=C[C@]2(C)c3nc(C#N)n(-c4ccccc4)c3CC[C@@H]12 [Compound T26]
27 | 15.4 | Cc1ccccc1-c1nc2c(n1-c1nnn(C)n1)CC[C@H]1[C@H](C)C(=O)C(C#N)=C[C@]21C [Compound T25]
28 | 11.3 | C[C@@H]1C(=O)C(C#N)=C[C@]2(C)c3nc(CCO)n(-c4ccccc4)c3CC[C@@H]12 [Compound T12]

From patent US11059792B2, “Imidazolyl tricyclic enones as antioxidant inflammation modulators” (REATA PHARMACEUTICALS, INC., priority 2015, dated 2021)
